Measurements from patent US20210023065A1, “AMPHIPHILIC THIOL COMPOUNDS AND USES THEREOF” (THE REGENTS OF THE UNIVERSITY OF CALIFORNIA, priority 2018, published 2021).

Tests used:
SNAP25 = biological target: T1, SNAP25 (Homo sapiens, UniProt P60880); experiment: Acyl resin-assisted capture detection of SNAP25 palmitoylation in HeLa cells; assay type: cell-based; conditions: 1.25 μmol/10^7 cells, relative to vehicle
T1 construct: we detected the palmitoylation levels of eight known palmitoylated proteins after treatment with 1; endogenous in cells; host or cells: HeLa
T1 sequence (P60880 whole entry): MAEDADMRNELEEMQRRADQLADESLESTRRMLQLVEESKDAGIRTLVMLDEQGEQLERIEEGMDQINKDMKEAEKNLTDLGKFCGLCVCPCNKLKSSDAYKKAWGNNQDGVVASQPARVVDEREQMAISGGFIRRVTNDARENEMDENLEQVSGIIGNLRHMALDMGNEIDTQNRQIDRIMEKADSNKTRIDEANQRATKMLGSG
Description: (§1) HeLa cells were grown to confluency in 10 cm plates. Stock solutions of compounds were prepared in DMSO as before and diluted to the final indicated concentration in 5.5 mL of OptiMEM media before adding to cells. Cells were incubated at 37° C. for 20 min and then media removed and 3 mL of HBSS added to each plate. Cells were detached using a cell scraper, pelleted by centrifugation at 1,000 rcf for 5 min and the pellet processed using a CAPTUREome S-Palmitoylated Protein Kit (Badrilla, UK) according to the manufacturer's protocol. Samples were resolved by electrophoresis using 4-20% SDS-polyacrylamide gels (Bio-Rad) under denaturing and reducing conditions. Proteins were then electrotransferred to a PVDF membrane (Bio-Rad). […]
(§2) Assays were performed in 3 biological replicates. […] Western blots were analyzed using ImageJ^1. […]

flotillin-2 = biological target: T2, flotillin-2 (Homo sapiens, UniProt Q14254); experiment: Acyl resin-assisted capture detection of flotillin-2 palmitoylation in HeLa cells; assay type: cell-based; conditions: 1.25 μmol/10^7 cells, relative to vehicle
T2 construct: we detected the palmitoylation levels of eight known palmitoylated proteins after treatment with 1; endogenous in cells; host or cells: HeLa
T2 sequence (Q14254 1-428): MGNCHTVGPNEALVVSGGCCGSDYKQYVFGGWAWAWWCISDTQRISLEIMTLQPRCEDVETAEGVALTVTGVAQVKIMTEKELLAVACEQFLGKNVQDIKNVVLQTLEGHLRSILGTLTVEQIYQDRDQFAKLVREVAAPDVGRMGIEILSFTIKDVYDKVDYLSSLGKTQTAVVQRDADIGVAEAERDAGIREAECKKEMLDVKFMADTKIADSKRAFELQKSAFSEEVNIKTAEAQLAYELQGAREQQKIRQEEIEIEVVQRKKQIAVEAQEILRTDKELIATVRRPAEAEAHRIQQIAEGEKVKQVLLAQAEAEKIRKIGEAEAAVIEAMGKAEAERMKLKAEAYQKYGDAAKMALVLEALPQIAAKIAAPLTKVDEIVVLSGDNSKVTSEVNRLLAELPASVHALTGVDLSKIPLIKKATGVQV
Description: as §1, §2

AKT1 (pS473) = experiment: Detection of AKT1 phosphorylation in HeLa cells (western blot); assay type: cell-based; conditions: 1.25 μmol/10^7 cells, 20 min, then EGF 5 min
Description: (§3) HeLa cells were grown to confluency in 6 cm plates and then serum starved overnight in OptiMEM. Stock solutions of compounds were prepared in DMSO as before and diluted to the final indicated concentration in 2 mL of OptiMEM media before adding to cells. Cells were incubated at 37° C. for 20 min and then stimulated with […] EGF (ThermoFisher) for 5 min. Media was then removed and cells washed once with HBSS. 1.5 mL of HBSS was then added to each plate. Cells were detached using a cell scraper, pelleted by centrifugation at 1,000 rcf for 5 min and the pellet processed using MPER™ Mammalian Protein Extraction Reagent (ThermoFisher) with the addition of Halt Protease Inhibitor Cocktail (ThermoFisher) and 1 mM sodium orthovanadate. Samples were resolved by electrophoresis using 4-20% SDS-polyacrylamide gels (Bio-Rad) under denaturing and reducing conditions. Proteins were then electrotransferred to a PVDF membrane (Bio-Rad). The membrane was blocked with 3% BSA and then subjected to immunoblot analysis using AKT/MAPK Signaling Pathway Antibody Cocktail (ab151279) (Abcam) and secondary goat anti-rabbit IgG-HRP (sc-2030) (Santa Cruz Biotechnology). […]
(§4) Assays were performed in 3 biological replicates. Western blots were analyzed using ImageJl. […]

ERK1/2 (pY204/pY187) = experiment: Detection of ERK1/2 phosphorylation in HeLa cells (western blot); assay type: cell-based; conditions: 1.25 μmol/10^7 cells, 20 min, then EGF 5 min
Description: as §3, §4

INCL lymphoblasts = assay type: cell-based, human
Description: INCL lymphoblasts were plated at 100,000 cells/well in 80 μL of OptiMEM in a 96 well plate. Stock organic solutions were prepared as before and then diluted to 5× stock solutions in OptiMEM. 20 μL of the OptiMEM stocks was then added to the appropriate wells to achieve the indicated final concentration of the compound in 100 μL of cell suspension. After a 24 h incubation, 10 μL of WST-1 reagent (Sigma-Aldrich) was added to each well and cells incubated for 1 h at 37° C., 5% CO2. Absorbance measurements were taken using a Satire II plate reader (Tecan) at 440 nm using 690 nm as a reference. The background absorbance of the WST-1 reagent in media was subtracted and cell viability was reported as a percentage of the viability of the non-treated control cells. All conditions were tested in 4 replicate wells and values reported as means±SD.

SMILES: CCCCCCCCNC(=O)[C@@H](N)CS [compound 1, H2N-L-Cys-Oct]
- reduction of palmitoylation level of SNAP25 (SNAP25): > 80%
- reduction of palmitoylation level of flotillin-2 (flotillin-2): 19-40%
- AKT1 phosphorylation after EGF stimulation (AKT1 (pS473)): significant decrease
- ERK1/2 phosphorylation after EGF stimulation (ERK1/2 (pY204/pY187)): but not ERK1/2 phosphorylation
- doses that did not decrease cell viability compared to the nontreated control (INCL lymphoblasts): up to 0.08 μmol/10^7 cells
